Assay results as given in patent US20200352918A1, “COMPOUNDS AND METHODS FOR TREATING OR PREVENTING FIBROSIS” (priority 2019, published 2020).
Entries after “also recorded” stand apart in the source; their conditions may differ.

Key:
[1] = tested on: iFA model; test: Proliferation by EdU labeling in the iFA model; format: cell-based, human; conditions: AA5-prevention vs DMSO, 6 h EdU
Experimental: Cells were incubated with 10 μM EdU (Invitrogen) at specified time points of culture for 6 hrs, fixed with 4% PFA, and detected by staining with Alexa594-azide according to the manufacturer's instructions. The cells were additionally counterstained with Vimentin and/or α-SMA and DAPI.

[2] = tested on: iFA phenotype of mesenchymal-like cells on 13 kPa hydrogels; test: iFA resolution screen (reversal of fibrosis) in the iFA model; format: cell-based, human
Experimental: Signal-to-background (S/B) ratio, standard variation and variation coefficients were calculated as the signal of DMSO treated wells divided by the signal of the hit compound (AA5) treated wells. Z′ values were used to measure assay quality which was calculated by the formula of Z′=1−3(SDTotal+SDBackground)/(MeanTotal−MeanBackground)(Inglese et al., 2006) where SDTotal and MeanTotal are the standard deviation and mean of signal for DMSO treated wells, and SDBackground and MeanBackground are the standard deviation and mean of signal for AA5 treated wells. Data normalization and curve fitting were performed as previously reported (Kariv et al., 1999, J Biomol Screen 4, 27-32.). Z′ values were obtained for the number of cellular aggregates and also calculated a phenotypic cell index as the product of cell number x area/Log(number of iFA aggregates+5). Secondary screening using α-SMA and collagen deposition was employed to further ensure efficacy and resolution of the iFA phenotype of the compounds. For the resolution screen, cells were seeded in a 96-well plate as mentioned above and compounds were added at day 13 to analyze their capacity to resolve the iFA phenotype using the same readouts as above. Dose response experiments were carried out as in the secondary screen but with at least 12 steps of a 1:1 dilution resulting in final compound concentrations from 500 μM to high nanomolar ranges.
The primary assay involved plating together the iPSCs and Table 1 compounds sourced from the library on day 1 on the hydrogel and examining the phenotype on day 7 of the culture as described herein. The secondary screen repeated the assay using compound sourced commercially or from additional library materials. The dose response refers to a 20 point dose course that ranges from picomolar to millimolar concentrations. […] As described herein, the cellular phenotype parameters evaluated included size, fluorescence intensity of the iFA phenotype, the shape factor of the cells/aggregates, and the cells' viability in the presence of viability dyes (Calcein AM).

[3] = tested on: ocular mucosal fibrosis; test: Murine model of ocular mucosal fibrosis (OVA induced); format: in vivo, mice
Experimental: Female […] mice 8-10 week of age were used for all experiments. The mice were housed in the institute's vivarium in compliance with the Animal Research Committee. Immune-mediated conjunctivitis was induced in by i.p. injection of 200 μl of immunization mix containing: 10 μg Ovalbumin (OVA) (Sigma-Aldrich), 4 mg aluminium hydroxide (Thermo Scientific), and 300 ng of pertussis toxin (Sigma-Aldrich). After 2 weeks, mice received topical OVA challenge ([…]) once a day for 7 days for the development of fibrosis. To evaluate the efficacy of AA5 in preventing fibrosis, topical OVA challenge was accompanied by addition of 1, 10, 100 or 1000 ug/mouse (n=12) AA5 administered in both eyes in a volume of 5 ul for a total of 7 days.
To evaluate the efficacy of AA5 in resolving fibrosis, topical OVA challenge was continued for an additional 7 days (days 14-21) after the initial OVA sensitization for the development of fibrosis. From day 21 to 28, OVA challenge was accompanied by addition of 1, 10, 100 or 1000 ug/mouse (n=12) AA5. 1% DMSO administered in both eyes in a 5 µl volume of PBS was used as control. Both eyes were scored in the same manner. For the scoring, a cumulative score of eyelid swelling (out of 3) and tearing (out of 3) was taken. At the end of the experiment at day 21 (prevention studies) or […] (resolution studies), mice were sacrificed and whole eyes were collected, fixed in 10% (v/v) formalin and processed by the standard methods for paraffin embedding. Sections (5 μm) were stained with Gomori Trichrome and H&E and imaged. Tissue sections were reviewed by 4 independent observers, including two observers who were blinded to the groups—a pathologist and another researcher. Conjunctivae were dissected from whole eyes and either processed for RNA or hydroxyproline.
Conjunctiva or LSCs were boiled in 50 μl or 400 μl of 6 M HCl, respectively at 100° C. overnight. Hydroxyproline levels were measured in the acid hydrolysis method using a kit from Biovision Inc. (Milpitas, Calif.) using the manufacturer's instructions. […]

[4] = tested on: SSEA4+ cells; test: FACS of SSEA4+ cells in the iFA model; format: cell-based, human; conditions: AA5 treatment
Experimental: For determination of various cell populations in the iFA model, the cells were dissociated using Accumax (Stem Cell Technologies) for 5 minutes, pelleted and resuspended in FACS buffer (3% Fetal Bovine Serum/PBS). 1×10^6 cells were incubated with a the appropriate conjugated antibody listed in Table 3 for 20 minutes at 4° C. under shaking conditions. The cells were washed with the FACS buffer and acquired using a flow cytometer (BD LSRII) and analysed using FACS Diva and FlowJo softwares.

Cc1c(C(=O)Nc2nc3ccccc3s2)sc2nc3cc4c(cc3cc12)OCO4 [AA5]
Proliferation (EdU) [1]: no effect on proliferation; also recorded: did not display any significant difference in the proliferation rate
Levels of Collagen I and α-SMA (resolution of iFA phenotype) ([2]; AA5-resolution): reduction
Reversal of fibrosis ([2]; phenotype formed over 10 days, then compounds added): Yes
Gomori Trichrome sections of whole eyes: conjunctiva thickness and collagen deposition ([3]; AA5 1000 ug): qualitatively decreased thickness of conjunctiva and collagen deposition
Collagen content of the conjunctivae ([3]; AA5-prevention and AA5-resolution at 0.1 and 1 mg doses): significant reduction
Clinical swelling, tearing and inflammation of eyes ([3]; topical, preventive and resolutive treatments, vs DMSO-treated eyes): less clinical swelling, tearing and inflammation
Percentages of SSEA4+ cells [4]: attenuated
